Measured values published in US20260138961A1, “MODULATORS OF MITOCHONDRIAL DNA REPLICATION” (Pretzel Therapeutics, Inc., priority 2022, published 2026).

Each compound was assayed against T1, POLγA:A467T (Homo sapiens, UniProt P54098, A467T) (assay: DNA polymerization assay, POLγA:A467T mutant). Settings: stimulation of polymerase activity, primed M13mp18 ssDNA, 37° C. 2 hours; read-out: A467T AC50.
T1 sequence (P54098 1-1239 A467T): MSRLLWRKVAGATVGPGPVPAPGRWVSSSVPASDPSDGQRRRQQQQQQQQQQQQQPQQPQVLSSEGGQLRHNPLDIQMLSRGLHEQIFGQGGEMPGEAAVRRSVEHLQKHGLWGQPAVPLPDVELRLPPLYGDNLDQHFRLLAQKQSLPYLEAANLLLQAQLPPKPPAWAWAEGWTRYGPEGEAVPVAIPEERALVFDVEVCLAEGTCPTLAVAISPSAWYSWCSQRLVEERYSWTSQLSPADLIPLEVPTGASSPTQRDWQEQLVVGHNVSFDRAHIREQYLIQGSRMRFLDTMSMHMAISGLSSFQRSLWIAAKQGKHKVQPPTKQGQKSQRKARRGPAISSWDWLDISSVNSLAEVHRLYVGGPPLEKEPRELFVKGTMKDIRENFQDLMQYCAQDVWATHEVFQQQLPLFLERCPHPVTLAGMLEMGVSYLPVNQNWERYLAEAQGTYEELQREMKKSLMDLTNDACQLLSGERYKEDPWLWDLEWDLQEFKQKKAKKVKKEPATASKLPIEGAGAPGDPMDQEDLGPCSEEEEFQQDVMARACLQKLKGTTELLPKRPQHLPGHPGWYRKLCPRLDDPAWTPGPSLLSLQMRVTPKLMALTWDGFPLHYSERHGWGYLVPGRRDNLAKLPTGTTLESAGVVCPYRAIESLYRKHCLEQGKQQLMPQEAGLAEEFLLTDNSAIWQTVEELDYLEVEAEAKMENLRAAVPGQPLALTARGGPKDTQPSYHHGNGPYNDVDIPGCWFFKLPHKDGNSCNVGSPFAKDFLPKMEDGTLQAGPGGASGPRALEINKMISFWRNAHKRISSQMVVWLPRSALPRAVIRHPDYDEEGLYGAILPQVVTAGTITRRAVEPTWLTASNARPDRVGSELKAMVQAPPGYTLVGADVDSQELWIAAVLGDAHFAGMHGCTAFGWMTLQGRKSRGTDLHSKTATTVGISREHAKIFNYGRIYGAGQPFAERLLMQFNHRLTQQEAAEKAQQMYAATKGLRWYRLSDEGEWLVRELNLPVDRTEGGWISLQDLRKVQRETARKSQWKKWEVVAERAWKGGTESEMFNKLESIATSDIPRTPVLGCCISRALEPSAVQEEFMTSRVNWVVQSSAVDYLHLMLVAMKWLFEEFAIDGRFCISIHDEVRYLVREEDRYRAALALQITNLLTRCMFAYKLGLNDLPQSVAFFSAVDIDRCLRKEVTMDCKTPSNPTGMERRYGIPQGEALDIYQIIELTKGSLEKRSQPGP
T1 sequence (Q9UHN1 1-485 partner): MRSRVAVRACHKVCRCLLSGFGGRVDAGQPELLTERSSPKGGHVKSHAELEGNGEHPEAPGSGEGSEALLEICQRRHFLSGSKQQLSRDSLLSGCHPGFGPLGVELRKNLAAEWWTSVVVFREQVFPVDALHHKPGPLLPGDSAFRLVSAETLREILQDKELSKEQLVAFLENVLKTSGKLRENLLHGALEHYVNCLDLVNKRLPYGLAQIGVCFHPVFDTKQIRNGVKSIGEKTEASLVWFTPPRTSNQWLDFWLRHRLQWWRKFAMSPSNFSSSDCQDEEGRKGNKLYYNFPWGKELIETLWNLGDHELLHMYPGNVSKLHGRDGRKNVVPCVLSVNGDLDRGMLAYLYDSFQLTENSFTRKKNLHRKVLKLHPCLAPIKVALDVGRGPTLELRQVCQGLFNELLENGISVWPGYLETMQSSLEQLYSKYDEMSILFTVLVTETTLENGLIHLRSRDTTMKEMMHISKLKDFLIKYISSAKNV
Assay type: biochemical

Row | SMILES | AC50 [µM]
1 | Cc1cc(S(=O)(=O)Nc2cccc(C(=O)N3CCN(C)CC3)c2)c(C)cc1Cl [Example 52, 4-chloro-2,5-dimethyl-N-(3-(4-methylpiperazine-1-carbonyl)phenyl)benzenesulfonamide] | > 100
2 | Cc1cc(S(=O)(=O)Nc2cccc(C(=O)NCCO)c2)c(C)cc1Cl [Example 53, 3-((4-chloro-2,5-dimethylphenyl)sulfonamido)-N-(2-hydroxyethyl)benzamide] | > 100
3 | Cc1cc(S(=O)(=O)Nc2cccc(C(=O)N3CCN(C)C[C@H]3C)c2)c(C)cc1Cl [Example 54, (R)-4-chloro-N-(3-(2,4-dimethylpiperazine-1-carbonyl)phenyl)-2,5-dimethylbenzenesulfonamide] | > 100
4 | Cc1cc(S(=O)(=O)Nc2cccc(C(=O)N3CCN(CCO)CC3)c2)c(C)cc1Cl [Example 55, 4-chloro-N-(3-(4-(2-hydroxyethyl)piperazine-1-carbonyl)phenyl)-2,5-dimethylbenzenesulfonamide] | > 100
5 | Cc1cc(S(=O)(=O)Nc2cccc(C(=O)N(C)CCO)c2)c(C)cc1Cl [Example 56, 3-((4-chloro-2,5-dimethylphenyl)sulfonamido)-N-(2-hydoxyethyl)-N-methylbenzamide] | > 100
6 | Cc1cc(S(=O)(=O)Nc2cccc(C(=O)N3CCC[C@H]3C)c2F)c(C)cc1Cl [Example 57, (R)-4-chloro-N-(2-fluoro-3-(2-methylpyrrolidine-1-carbonyl)phenyl)-2,5-dimethylbenzenesulfonamide] | > 100
7 | COCCN(C)C(=O)c1cccc(NS(=O)(=O)c2cc(C)c(Cl)cc2C)c1 [Example 58, 3-((4-chloro-2,5-dimethylphenyl)sulfonamido)-N-(2-methoxyethyl)-N-methylbenzamide] | > 100
8 | O=S(=O)(Nc1cccc(-c2nccs2)c1)c1ccc(Cl)cc1 [Example 59, 4-chloro-N-(3-(thiazol-2-yl)phenyl)benzenesulfonamide] | > 100
9 | Cc1ccc(C)c(S(=O)(=O)Nc2cccc(-c3nccs3)c2)c1 [Example 60] | 5
10 | Cc1cc(S(=O)(=O)Nc2cc(-c3nccs3)ccc2F)c(C)cc1Cl [Example 61, 4-chloro-N-(2-fluoro-5-(thiazol-2-yl)phenyl)-2,5-dimethylbenzenesulfonamide] | > 100
11 | Cc1cc(S(=O)(=O)Nc2cc(F)cc(-c3nccs3)c2)c(C)cc1Cl [Example 62, 4-chloro-N-(3-fluoro-5-(thiazol-2-yl)phenyl)-2,5-dimethylbenzenesulfonamide] | > 100
12 | Cc1cc(S(=O)(=O)Nc2ccc(F)c(-c3nccs3)c2)c(C)cc1Cl [Example 63, 4-chloro-N-(4-fluoro-3-(thiazol-2-yl)phenyl)-2,5-dimethylbenzenesulfonamide] | > 100
13 | Cc1cc(S(=O)(=O)Nc2cccc(-c3cc(C4CC4)[nH]n3)c2)c(C)cc1Cl [Example 64, 4-chloro-N-(3-(5-cyclopropyl-1H-pyrazol-3-yl)phenyl)-2,5-dimethylbenzenesulfonamide] | 8
14 | CC[C@@H]1CCCN1C(=O)c1cccc(NS(=O)(=O)c2cc(C)c(Cl)cc2C)c1 [Example 65, (R)-4-chloro-N-(3-(2-ethylpyrrolidine-1-carbonyl)phenyl)-2,5-dimethylbenzenesulfonamide] | 15
15 | Cc1cc(-c2cccc(NS(=O)(=O)c3cc(C)c(Cl)cc3C)c2)n[nH]1 [Example 66, 4-chloro-2,5-dimethyl-N-(3-(5-methyl-1H-pyrazol-3-yl)phenyl)benzenesulfonamide] | 11
16 | Cc1cc(S(=O)(=O)Nc2cccc(C(=O)N3CCC[C@H]3C(C)C)c2)c(C)cc1Cl [Example 67, (S)-4-chloro-N-(3-(2-isopropylpyrrolidine-1-carbonyl)phenyl)-2,5-dimethylbenzenesulfonamide] | > 100

Row | SMILES | AC50 [µM]
17 | Cc1cc(S(=O)(=O)Nc2cccc(-c3cc[nH]n3)c2)c(C)cc1Cl [Example 68, N-(3-(1H-pyrazol-3-yl)phenyl)-4-chloro-2,5-dimethylbenzenesulfonamide] | 16
18 | Cc1cc(S(=O)(=O)Nc2ccc3ccn(C(C)C)c3c2)c(C)cc1Cl [Example 69, 4-chloro-N-(1-isopropyl-1H-indol-6-yl)-2,5-dimethylbenzenesulfonamide] | 17
19 | Cc1nc2ccc(NS(=O)(=O)c3cc(C)c(Cl)cc3C)cc2o1 [Example 70, 4-chloro-2,5-dimethyl-N-(2-methylbenzo[d]oxazol-6-yl)benzenesulfonamide] | 32
20 | Cc1nc2cc(NS(=O)(=O)c3cc(C)c(Cl)cc3C)ccc2s1 [Example 71, 4-chloro-2,5-dimethyl-N-(2-methylbenzo[d]thiazol-5-yl)benzenesulfonamide] | > 100
21 | Cc1c(Cl)cccc1S(=O)(=O)Nc1csc(-c2ccccc2)n1 [Example 154, 3-chloro-2-methyl-N-(2-phenylthiazol-4-yl)benzenesulfonamide] | > 100
22 | COc1ccccc1-c1nc(NS(=O)(=O)c2cc(C)c(Cl)cc2C)cs1 [Example 155, 4-chloro-N-(2-(2-methoxyphenyl)thiazol-4-yl)-2,5-dimethylbenzenesulfonamide] | > 100
23 | Cc1cc(S(=O)(=O)Nc2nc(-c3ccccc3)co2)c(C)cc1Cl [Example 157, 4-chloro-2,5-dimethyl-N-(4-phenyloxazol-2-yl)benzenesulfonamide] | > 100
24 | Cc1cc(S(=O)(=O)N[C@H]2CCN(c3ccccc3)C2)c(C)cc1Cl [Example 158, (S)-4-chloro-2,5-dimethyl-N-(1-phenylpyrrolidin-3-yl)benzenesulfonamide] | > 100
25 | Cc1cc(S(=O)(=O)Nc2nc(-c3ccccc3)cn2C)c(C)cc1Cl [Example 159, 4-chloro-2,5-dimethyl-N-(1-methyl-4-phenyl-1H-imidazol-2-yl)benzenesulfonamide] | > 100
26 | Cc1cc(S(=O)(=O)Nc2cccc(C(=O)N3CCC(F)(F)C3)c2)c(C)cc1Cl [Example 160, 4-chloro-N-(3-(3,3-difluoropyrrolidine-1-carbonyl)phenyl)-2,5-dimethylbenzenesulfonamide] | > 100
27 | Cc1cc(S(=O)(=O)N[C@H]2CCCN(c3ccccc3)C2)c(C)cc1Cl [Example 161, (S)-4-chloro-2,5-dimethyl-N-(1-phenylpiperidin-3-yl)benzenesulfonamide] | > 100
28 | Cc1cc(S(=O)(=O)Nc2cccc(C(=O)N3CCCC34CC4)c2)c(C)cc1Cl [Example 162, N-(3-(4-azaspiro[2.4]heptane-4-carbonyl)phenyl)-4-chloro-2,5-dimethylbenzenesulfonamide] | 91
29 | CC(=O)N1CCC(c2nc(NS(=O)(=O)c3cc(C)c(Cl)cc3C)cs2)CC1 [Example 163, N-(2-(1-acetylpiperidin-4-yl)thiazol-4-yl)-4-chloro-2,5-dimethylbenzenesulfonamide] | > 100
30 | COc1cccc(-c2nc(NS(=O)(=O)c3cc(C)c(Cl)cc3C)cs2)c1 [Example 165, 4-chloro-N-(2-(3-methoxyphenyl)thiazol-4-yl)-2,5-dimethylbenzenesulfonamide] | 1
31 | Cc1cc(S(=O)(=O)Nc2csc(C(=O)N3CCCC3)n2)c(C)cc1Cl [Example 166, 4-chloro-2,5-dimethyl-N-(2-(pyrrolidine-1-carbonyl)thiazol-4-yl)benzenesulfonamide] | 2
32 | Cc1cc(S(=O)(=O)Nc2csc(C3CCOCC3)n2)c(C)cc1Cl [Example 167, 4-chloro-2,5-dimethyl-N-(2-(tetrahydro-2H-pyran-4-yl)thiazol-4-yl)benzenesulfonamide] | 8
